Measured values taken from patent US5510346A, “4-heteroaryl-1,3-benzodiazepines and 2-substituted-gamma-(heteroaryl)benzeneethanamines” (Hoechst Marion Roussel, Inc., priority 1991, dated 1996).

Legend:
[1] = system: N-methyl-D-aspartic acid (NMDA)-induced seizures; assay: N-Methyl-D,L-Aspartic Acid Induced Seizure Assay (NMDA protection); assay type: in vivo; details: male Swiss Webster mice, ip; N-methyl-D,L-aspartic acid 350 mg/kg challenge; absence of clonic seizures during 30 minute observation
Protocol: In this assay, male Swiss Webster mice (Charles River), 18-25 grams are used. Animals are ordered at 33 to 36 days of age and can be used for 8 days after arrival. They are housed for at least 24 hours in a climate controlled animal colony with food and water available ad libimm. On the day of testing, animals are brought to the laboratory and randomly assigned to groups. N-Methyl-D,L-aspartic acid (350 mg) is dissolved in 10 ml of saline and mixed thoroughly with a homogenizer for 1-2 minutes. Test compounds are prepared in distilled water and, if insoluable, a suitable surfactant is added. For a primary screen the test compound is administered at 60 mg/kg, ip (10 ml/kg), to groups of ten mice, 30 minutes prior to challenge with N-methyl-D,L-aspartic acid (350 mg/kg, […]). After N-Methyl-D,L-aspartic acid administration animals are placed individually in clear plastic cyclinders (12"×5.5"×1/4") and then observed for clonic seizures. N-methyl-D,L-aspartic acid will produce clonic seizures, and sometimes tonic seizures and death, in vehicle control animals.
A clonic convulsion is defined as a single episode of clonic spasms of a least a 3 second duration. […]
Data is calculated by the method of J. T. Litchfield, Jr. and F. Wileoxon. […]
The normalized percent protection is calculated using the following formula: [formula]

[2] = system: Geller Conflict Paradigm in Rats; assay: Geller Conflict Paradigm in Rats (anxiolytic activity); assay type: in vivo; details: i.p.
From the text: The intraperitoneal (i.p.) dosages at which the following compounds show anxiolytic activity are: […]

2-Amino-α-(3-methyl-3-thienyl)benzeneethanamine
NMDA Protection ED50 [1]: 19.0 mg/kg

CN1C(=O)CN=C(c2ccccc2)c2cc(Cl)ccc21 [Diazepam, reference compound]
Anti-Conflict Response % Change Compared to Control ([2]; 10 mg/kg): +180% | Anti-Conflict Response % Change Compared to Control ([2]; 20 mg/kg): +630%

CCNC(Cc1ccccc1N)c1sccc1C.Cl.Cl (stereo not drawn) [2-Amino-N-ethyl-α-(3-methyl-2-thienyl)benzeneethanamine dihydrochloride]
Anti-Conflict Response % Change Compared to Control ([2]; 1 mg/kg): +100% | Anti-Conflict Response % Change Compared to Control ([2]; 5 mg/kg): +70%
